Assay results reported in patent US10703756B2, “Pyrrolo[2,3-D]pyrimidinyl, pyrrolo[2,3-B]pyrazinyl, pyrrolo[2,3-B]pyridinyl acrylamides and epoxides thereof” (Pfizer Inc., priority 2015, dated 2020).

Key:
[1] = target: T1, JAK3 enzyme (Homo sapiens, UniProt P52333); experiment: JAK Caliper Enzyme Assay at 1 mM ATP; type: biochemical
T1 sequence (P52333 1-1124): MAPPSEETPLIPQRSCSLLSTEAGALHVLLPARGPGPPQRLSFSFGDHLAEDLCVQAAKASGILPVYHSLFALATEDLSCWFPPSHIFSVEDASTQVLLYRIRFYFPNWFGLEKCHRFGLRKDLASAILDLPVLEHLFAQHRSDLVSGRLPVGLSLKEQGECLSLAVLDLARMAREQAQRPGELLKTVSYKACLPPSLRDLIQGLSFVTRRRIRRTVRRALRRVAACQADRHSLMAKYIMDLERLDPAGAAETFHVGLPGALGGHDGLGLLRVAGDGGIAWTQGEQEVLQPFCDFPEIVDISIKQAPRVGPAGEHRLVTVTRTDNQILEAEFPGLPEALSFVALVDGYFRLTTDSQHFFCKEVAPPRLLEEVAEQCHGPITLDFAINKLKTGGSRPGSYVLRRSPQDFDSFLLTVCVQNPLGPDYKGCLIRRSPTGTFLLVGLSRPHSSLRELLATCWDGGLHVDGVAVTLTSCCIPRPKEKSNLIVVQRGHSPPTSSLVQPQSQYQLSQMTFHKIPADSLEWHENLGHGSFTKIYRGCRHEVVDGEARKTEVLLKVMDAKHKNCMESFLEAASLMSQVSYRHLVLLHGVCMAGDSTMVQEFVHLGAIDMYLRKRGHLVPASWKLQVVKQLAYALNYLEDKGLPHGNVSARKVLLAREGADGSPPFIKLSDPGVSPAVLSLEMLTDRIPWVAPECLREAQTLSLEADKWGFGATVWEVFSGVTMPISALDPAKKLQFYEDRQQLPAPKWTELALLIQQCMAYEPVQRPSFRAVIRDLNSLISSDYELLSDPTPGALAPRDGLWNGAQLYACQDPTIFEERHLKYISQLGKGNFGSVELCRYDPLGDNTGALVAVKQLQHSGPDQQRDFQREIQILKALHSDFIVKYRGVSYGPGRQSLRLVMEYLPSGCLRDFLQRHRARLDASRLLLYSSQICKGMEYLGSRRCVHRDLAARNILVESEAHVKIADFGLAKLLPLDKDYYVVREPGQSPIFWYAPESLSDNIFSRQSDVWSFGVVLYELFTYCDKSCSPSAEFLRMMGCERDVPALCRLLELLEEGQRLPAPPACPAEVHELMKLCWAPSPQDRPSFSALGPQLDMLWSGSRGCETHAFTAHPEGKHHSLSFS
Procedure, shortened: (§1)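 Peptide phosphorylation by the kinase, adjusted to 20%-30% conversion, is measured by microfluidic separation of substrate and product on a Caliper LC3000. Compounds run as 11-point half-log series from a 600 μM DMSO top concentration.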

[2] = target: T1, JAK3 enzyme; experiment: JAK Caliper Enzyme Assay at 4 μM ATP; type: biochemical
Procedure, shortened: as §1

[3] = system: IL-15 induced STAT5 phosphorylation in human whole blood lymphocytes; experiment: HWB IL-15 Induced STAT5 Phosphorylation Assay; type: cell-based; details: Lymphocyte, IL-15 final 50 ng/ml, read-out: HWB_IL15 pSTAT5 IC50
Procedure, shortened: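 Heparinised human whole blood preincubated with compound (0.2% DMSO final) 45 min at 37° C, then stimulated with human IL-15 (50 ng/ml final) for 15 min. After lyse/fix and Perm Buffer III permeabilisation, stained overnight at 4° C with AlexaFluor647 anti-phospho-STAT5; read by flow cytometry gated on total lymphocytes.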

[4] = Stability of JAK3 Covalent Inhibitors in Human Whole Blood; type: in vitro ADME; details: both sexes, 1 μM test compound, 37° C., 180 min incubation, read-out: Human blood stability t1/2
Procedure, shortened: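 Parent remaining versus time was derived from LC-MS/MS peak area ratios to internal standard after acetonitrile quench. Incubations ran for 180 min at 37° C, in duplicate, with 1 μM test compound in pooled K2-EDTA human blood (two healthy donors).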

C=CC(=O)N1CC(CF)CC(Nc2ncnc3[nH]ccc23)C1 (mixture of isomers) [Example 102, Cis-racemic-1-[3-(fluoromethyl-5-(7H-pyrrolo[2,3-d]pyrimidin-4-ylamino)piperidin-1-yl]prop-2-en-1-one]
IC50 [1]: 142 nM | IC50 [2]: 1.9 nM | IC50 [3]: 1530 nM | half-life at 1 μM [4]: 2.02 h

C=CC(=O)N1CC[C@@H](Nc2cnc3[nH]cc(C(=O)NCC)c3n2)[C@@H](C)C1 (racemic) [Example 37, Cis-racemic-2-{[(3S,4R)-1-acryloyl-3-methylpiperidin-4-yl]amino}-N-ethyl-5H-pyrrolo[2,3-b]pyrazine-7-carboxamide]
IC50 [1]: 51 nM | IC50 [2]: 0.375 nM | IC50 [3]: 1940 nM | half-life at 1 μM [4]: 5.08 h

C=CC(=O)N1CC[C@H](Nc2cnc3[nH]cc(C(=O)NCC)c3n2)C[C@H]1C (racemic) [Example 40, Trans-racemic-2-{[(2R,4S)-1-acryloyl-2-methylpiperidin-4-yl]amino}-N-ethyl-5H-pyrrolo[2,3-b]pyrazine-7-carboxamide]
IC50 [1]: 24 nM | IC50 [2]: 0.384 nM | IC50 [3]: 842 nM | half-life at 1 μM [4]: 4.05 h

C=CC(=O)N1CC[C@@H](Oc2cnc3[nH]cc(C(=O)N[C@@H](C)COC)c3n2)C[C@@H]1C (racemic) [Example 71, Trans-racemic-2-{[1-acryloyl-2-methylpiperidin-4-yl]oxy}-N-[(2S)-1-methoxypropan-2-yl]-5H-pyrrolo[2,3-b]pyrazine-7-carboxamide]
IC50 [1]: 54 nM | IC50 [2]: 1.13 nM | IC50 [3]: 931 nM | half-life at 1 μM [4]: 5.15 h

C=CC(=O)N1CC[C@@H](Oc2cnc3[nH]cc(C(=O)NCC)c3n2)C[C@@H]1C (racemic) [Example 77, Trans-racemic-2-{[1-acryloyl-2-methylpiperidin-4-yl]oxy}-N-ethyl-5H-pyrrolo[2,3-b]pyrazine-7-carboxamide]
IC50 [1]: 115 nM | IC50 [2]: 0.702 nM | IC50 [3]: 2450 nM | half-life at 1 μM [4]: > 5.34 h

C=CC(=O)N1C[C@H](Nc2ncnc3[nH]ccc23)CC[C@@H]1CNC(C)=O (racemic) [Example 88, rac-N-(((2R,5R)-5-((7H-pyrrolo[2,3-d]pyrimidin-4-yl)amino)-1-acryloylpiperidin-2-yl)methyl)acetamide]
IC50 [1]: 137 nM | IC50 [2]: 1.5 nM | IC50 [3]: 5050 nM | half-life at 1 μM [4]: > 6 h

C=CC(=O)N1C[C@@H](CC#N)C[C@@H](Nc2ncnc3[nH]ccc23)C1 (racemic) [Example 105, Cis-racemic-[1-acryloyl-5-(7H-pyrrolo[2,3-d]pyrimidin-4-ylamino)piperidin-3-yl]acetonitrile]
IC50 [1]: 54 nM | IC50 [2]: 0.408 nM | IC50 [3]: 1070 nM | half-life at 1 μM [4]: 2.3 h

C=CC(=O)N1CCC(Oc2cnc3[nH]cc(C(=O)NC4CCCC4)c3n2)CC1 (racemic) [Example 204, Racemic-2-[(1-acryloylpiperidin-4-yl)oxy]-N-cyclopentyl-5H-pyrrolo[2,3-b]pyrazine-7-carboxamide]
IC50 [1]: 49 nM | IC50 [2]: 0.272 nM | IC50 [3]: 1390 nM | half-life at 1 μM [4]: > 6 h

C=CC(=O)N1CCC(Oc2cnc3[nH]cc(C(=O)NC(C)C4CC4)c3n2)CC1 (racemic) [Example 220, Racemic-2-[(1-acryloylpiperidin-4-yl)oxy]-N-(1-cyclopropylethyl)-5H-pyrrolo[2,3-b]pyrazine-7-carboxamide]
IC50 [1]: 18 nM | IC50 [2]: 0.211 nM | IC50 [3]: 1070 nM | half-life at 1 μM [4]: 3.7 h

C=CC(=O)N1CC[C@H](Nc2cnc3[nH]cc(C(=O)NCC(C)CC(F)(F)F)c3n2)[C@H](OC)C1 (mixture of isomers) [Example 328, Racemic-2-{[(3R,4S)-1-acryloyl-3-methoxypiperidin-4-yl]amino}-N-(4,4,4-trifluoro-2-methylbutyl)-5H-pyrrolo[2,3-b]pyrazine-7-carboxamide]
IC50 [1]: 37 nM | IC50 [2]: 0.578 nM | IC50 [3]: 287 nM | half-life at 1 μM [4]: 4.2 h

C=CC(=O)N1CCC[C@H](Nc2cnc3[nH]cc(C(=O)NCC)c3n2)C1 (single isomer, unassigned) [Example 36]
IC50 [1]: 54 nM | IC50 [2]: 0.875 nM | IC50 [3]: 1090 nM | half-life at 1 μM [4]: > 6 h

C=CC(=O)N1CC[C@@H](Nc2cnc3[nH]cc(C(=O)NCC)c3n2)[C@@H](C)C1 (single isomer, unassigned) [Example 38]
IC50 [1]: 30 nM | IC50 [2]: 0.328 nM | IC50 [3]: 1160 nM | half-life at 1 μM [4]: 4.38 h

C=CC(=O)N1CC[C@H](Nc2cnc3[nH]cc(C(=O)NCC)c3n2)C[C@H]1C (single isomer, unassigned) [Example 41]
IC50 [1]: 22 nM | IC50 [2]: 0.159 nM | IC50 [3]: 515 nM | half-life at 1 μM [4]: 3.75 h

C=CC(=O)N1CC[C@@H](Nc2cnc3[nH]cc(C(=O)NCC)c3n2)C[C@@H]1C (single isomer, unassigned) [Example 42]
IC50 [1]: 50 nM | IC50 [2]: 0.4 nM | IC50 [3]: 1060 nM | half-life at 1 μM [4]: 4.68 h

C=CC(=O)N1CC[C@@H](Nc2cnc3[nH]cc(C(=O)NCC)c3n2)[C@H](C)C1 (single isomer, unassigned) [Example 44]
IC50 [1]: 47 nM | IC50 [2]: 0.35 nM | IC50 [3]: 1230 nM | half-life at 1 μM [4]: 4.27 h

C=CC(=O)N1CC[C@@H](Oc2cnc3[nH]cc(C(=O)NCC)c3n2)[C@H](C)C1 (single isomer, unassigned) [Example 47]
IC50 [1]: 87 nM | IC50 [2]: 1.18 nM | IC50 [3]: 3580 nM | half-life at 1 μM [4]: 1.8 h

C=CC(=O)N1CC[C@@H](Oc2cnc3[nH]cc(C(=O)N[C@@H](C)COC)c3n2)C[C@@H]1C (single isomer, unassigned) [Example 73]
IC50 [1]: 33 nM | IC50 [2]: 0.971 nM | IC50 [3]: 738 nM | half-life at 1 μM [4]: > 6 h

C=CC(=O)N1CC[C@@H](Oc2cnc3[nH]cc(C(=O)NCC)c3n2)C[C@@H]1C (single isomer, unassigned) [Example 79]
IC50 [1]: 77 nM | IC50 [2]: 0.608 nM | IC50 [3]: 2710 nM | half-life at 1 μM [4]: 5.5 h

C=CC(=O)N1C[C@@H](CF)C[C@@H](Nc2ncnc3[nH]ccc23)C1 (single isomer, unassigned) [Example 103]
IC50 [1]: 38 nM | IC50 [2]: 0.424 nM | IC50 [3]: 659 nM | half-life at 1 μM [4]: 2.28 h

C=CC(=O)N1C[C@@H](CC#N)C[C@@H](Nc2ncnc3[nH]ccc23)C1 (single isomer, unassigned) [Example 106]
IC50 [1]: 25 nM | IC50 [2]: 0.125 nM | IC50 [3]: 287 nM | half-life at 1 μM [4]: 1.87 h

C=CC(=O)N1CCC(N(C)c2cnc3[nH]cc(C(=O)NC(C)C)c3n2)CC1 [Example 64, 2-[(1-acryloylpiperidin-4-yl)(methyl)amino]-N-(propan-2-yl)-5H-pyrrolo[2,3-b]pyrazine-7-carboxamide]
IC50 [1]: 50 nM | IC50 [2]: 0.408 nM | IC50 [3]: 3130 nM | half-life at 1 μM [4]: 4.42 h

C=CC(=O)N(C)C1CN(c2cnc3[nH]cc(C(=O)N[C@H](C)COC)c3n2)C1 [Example 86, 2-{3-[acryloyl(methyl)amino]azetidin-1-yl}-N-[(2R)-1-methoxypropan-2-yl]-5H-pyrrolo[2,3-b]pyrazine-7-carboxamide]
IC50 [1]: 94 nM | IC50 [2]: 0.515 nM | IC50 [3]: 2920 nM | half-life at 1 μM [4]: 1.67 h

C=CC(=O)N1C[C@H](COCCC#N)C[C@H](Nc2ncnc3[nH]ccc23)C1 [Example 101, 3-{[(3R,5S)-1-Acryloyl-5-(7H-pyrrolo[2,3-d]pyrimidin-4-ylamino)piperidin-3-yl]methoxy}propanenitrile]
IC50 [1]: 28 nM | IC50 [2]: 0.219 nM | IC50 [3]: 703 nM | half-life at 1 μM [4]: 1.9 h
